Drawing on PMC8799717, “Pharmacological targeting PIKfyve and tubulin as an effective treatment strategy for double-hit lymphoma” (Cell Death Discovery, 2022), this text covers remaining binding for 1 compound.

For experiment [1], the target named is DDR1 (Homo sapiens, UniProt Q08345). Put plainly: KINOMEscan competition binding, single dose […]. The following applies: read-out: % of control at 1 μM.
The target of experiment [2] is CAMK2B (Homo sapiens, UniProt Q13554). As to the kind of experiment: biochemical. Also on record: KINOMEscan active-site-directed competition binding panel, 468 kinases, percent of DMSO control at 1 uM. The following applies: KINOMEscan binding, percent of DMSO control; read-out: Ctrl%.
CAMK2B, sequence (Q13554 whole entry): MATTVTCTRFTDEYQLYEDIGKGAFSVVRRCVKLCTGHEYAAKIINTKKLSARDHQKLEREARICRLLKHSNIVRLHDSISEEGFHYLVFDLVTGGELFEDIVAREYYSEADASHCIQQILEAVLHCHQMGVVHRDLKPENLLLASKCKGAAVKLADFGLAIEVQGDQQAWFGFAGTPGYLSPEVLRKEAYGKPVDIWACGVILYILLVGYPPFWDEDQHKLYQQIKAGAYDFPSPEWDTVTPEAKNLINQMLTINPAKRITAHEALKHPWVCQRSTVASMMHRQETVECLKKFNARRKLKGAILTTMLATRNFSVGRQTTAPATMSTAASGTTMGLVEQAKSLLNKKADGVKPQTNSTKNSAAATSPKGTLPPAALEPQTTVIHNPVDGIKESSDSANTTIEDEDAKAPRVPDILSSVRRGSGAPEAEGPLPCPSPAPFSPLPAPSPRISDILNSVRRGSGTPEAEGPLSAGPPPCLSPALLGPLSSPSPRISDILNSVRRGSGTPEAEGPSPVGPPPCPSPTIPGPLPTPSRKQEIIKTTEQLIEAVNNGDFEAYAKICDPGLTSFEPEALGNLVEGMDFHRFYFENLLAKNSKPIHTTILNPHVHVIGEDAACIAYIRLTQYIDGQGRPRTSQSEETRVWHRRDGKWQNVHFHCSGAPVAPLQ
The target of experiment [3] is NLK (Homo sapiens, UniProt Q9UBE8). Put plainly: biochemical. Also noted: KINOMEscan active-site-directed competition binding panel, 468 kinases, percent of DMSO control at 1 uM. The following applies: KINOMEscan binding, percent of DMSO control; read-out: Ctrl%.
Experiment [4] deals with T1, RSK2(Kin.Dom.2-C-terminal) (Homo sapiens, UniProt P51812).
T1 construct: gene RPS6KA3; Kin.Dom.2-C-terminal
As to the kind of experiment: biochemical. The following applies: KINOMEscan binding, percent of DMSO control; read-out: Ctrl%. Also on record: KINOMEscan active-site-directed competition binding panel, 468 kinases, percent of DMSO control at 1 uM.

In experiment [5] the target is CDK4 (Homo sapiens, UniProt P11802). Put plainly: biochemical. Also on record: KINOMEscan active-site-directed competition binding panel, 468 kinases, percent of DMSO control at 1 uM. The following applies: KINOMEscan binding, percent of DMSO control; read-out: Ctrl%.
Experiment [6] addresses CAMKK2 (Homo sapiens, UniProt Q96RR4). Put plainly: biochemical. Also noted: KINOMEscan active-site-directed competition binding panel, 468 kinases, percent of DMSO control at 1 uM. The following applies: KINOMEscan binding, percent of DMSO control; read-out: Ctrl%.
The target in experiment [7] is FER (Homo sapiens, UniProt P16591). As to the kind of experiment: biochemical. Also noted: KINOMEscan active-site-directed competition binding panel, 468 kinases, percent of DMSO control at 1 uM. The following applies: KINOMEscan binding, percent of DMSO control; read-out: Ctrl%.
FER, sequence (P16591 whole entry): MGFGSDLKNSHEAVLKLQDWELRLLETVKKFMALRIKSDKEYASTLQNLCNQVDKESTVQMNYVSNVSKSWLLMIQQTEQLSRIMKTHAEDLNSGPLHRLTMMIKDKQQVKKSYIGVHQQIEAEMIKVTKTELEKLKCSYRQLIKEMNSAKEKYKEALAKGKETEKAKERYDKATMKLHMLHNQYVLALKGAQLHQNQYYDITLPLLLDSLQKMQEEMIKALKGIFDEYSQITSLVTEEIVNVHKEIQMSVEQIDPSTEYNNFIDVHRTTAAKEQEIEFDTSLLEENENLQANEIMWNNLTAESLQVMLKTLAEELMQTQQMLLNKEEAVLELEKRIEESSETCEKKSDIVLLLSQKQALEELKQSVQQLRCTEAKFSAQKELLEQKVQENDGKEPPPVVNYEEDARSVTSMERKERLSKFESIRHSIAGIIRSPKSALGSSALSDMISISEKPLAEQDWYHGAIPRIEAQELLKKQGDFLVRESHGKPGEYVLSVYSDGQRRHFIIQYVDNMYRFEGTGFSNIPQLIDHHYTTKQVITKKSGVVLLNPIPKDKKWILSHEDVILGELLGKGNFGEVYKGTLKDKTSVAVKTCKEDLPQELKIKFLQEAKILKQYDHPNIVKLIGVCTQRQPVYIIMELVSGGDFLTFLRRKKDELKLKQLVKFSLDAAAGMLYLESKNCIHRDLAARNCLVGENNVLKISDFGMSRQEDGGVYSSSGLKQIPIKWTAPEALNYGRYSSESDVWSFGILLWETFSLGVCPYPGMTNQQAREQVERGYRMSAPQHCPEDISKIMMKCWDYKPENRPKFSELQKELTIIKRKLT
The target in experiment [8] is PAK3 (Homo sapiens, UniProt O75914). As to the kind of experiment: biochemical. Also noted: KINOMEscan active-site-directed competition binding panel, 468 kinases, percent of DMSO control at 1 uM. The following applies: KINOMEscan binding, percent of DMSO control; read-out: Ctrl%.
PAK3, sequence (O75914 whole entry): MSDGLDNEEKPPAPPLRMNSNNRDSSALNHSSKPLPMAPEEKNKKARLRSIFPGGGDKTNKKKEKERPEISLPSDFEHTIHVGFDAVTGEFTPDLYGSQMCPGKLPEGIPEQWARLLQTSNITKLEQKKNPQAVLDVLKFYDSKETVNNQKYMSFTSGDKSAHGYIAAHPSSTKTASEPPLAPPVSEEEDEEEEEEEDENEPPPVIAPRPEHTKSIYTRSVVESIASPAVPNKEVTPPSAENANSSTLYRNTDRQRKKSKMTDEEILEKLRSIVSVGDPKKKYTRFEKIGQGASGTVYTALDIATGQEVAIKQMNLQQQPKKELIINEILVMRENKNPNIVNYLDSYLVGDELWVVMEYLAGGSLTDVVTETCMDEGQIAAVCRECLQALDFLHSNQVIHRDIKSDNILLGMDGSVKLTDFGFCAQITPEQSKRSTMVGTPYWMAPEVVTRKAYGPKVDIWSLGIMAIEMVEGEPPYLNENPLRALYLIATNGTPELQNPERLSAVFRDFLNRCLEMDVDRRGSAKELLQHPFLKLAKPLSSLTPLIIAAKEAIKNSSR
In experiment [9] the target is T2, TYK2(JH2domain-pseudokinase) (Homo sapiens, UniProt P29597).
T2 construct: JH2domain-pseudokinase
As to the kind of experiment: biochemical. The following applies: KINOMEscan binding, percent of DMSO control; read-out: Ctrl%. Also on record: KINOMEscan active-site-directed competition binding panel, 468 kinases, percent of DMSO control at 1 uM.

Experiment [10] has as its target CDK9 (Homo sapiens, UniProt P50750). Put plainly: biochemical. Also on record: KINOMEscan active-site-directed competition binding panel, 468 kinases, percent of DMSO control at 1 uM. The following applies: KINOMEscan binding, percent of DMSO control; read-out: Ctrl%.
In experiment [11] the target is MYLK2 (Homo sapiens, UniProt Q9H1R3). As to the kind of experiment: biochemical. Also on record: KINOMEscan active-site-directed competition binding panel, 468 kinases, percent of DMSO control at 1 uM. The following applies: KINOMEscan binding, percent of DMSO control; read-out: Ctrl%.
The target of experiment [12] is MARK2 (Homo sapiens, UniProt Q7KZI7). As to the kind of experiment: biochemical. Also noted: KINOMEscan active-site-directed competition binding panel, 468 kinases, percent of DMSO control at 1 uM. The following applies: KINOMEscan binding, percent of DMSO control; read-out: Ctrl%.
In experiment [13] the target is RIPK4 (Homo sapiens, UniProt P57078). Put plainly: biochemical. Also noted: KINOMEscan active-site-directed competition binding panel, 468 kinases, percent of DMSO control at 1 uM. The following applies: KINOMEscan binding, percent of DMSO control; read-out: Ctrl%.
RIPK4, sequence (P57078 whole entry): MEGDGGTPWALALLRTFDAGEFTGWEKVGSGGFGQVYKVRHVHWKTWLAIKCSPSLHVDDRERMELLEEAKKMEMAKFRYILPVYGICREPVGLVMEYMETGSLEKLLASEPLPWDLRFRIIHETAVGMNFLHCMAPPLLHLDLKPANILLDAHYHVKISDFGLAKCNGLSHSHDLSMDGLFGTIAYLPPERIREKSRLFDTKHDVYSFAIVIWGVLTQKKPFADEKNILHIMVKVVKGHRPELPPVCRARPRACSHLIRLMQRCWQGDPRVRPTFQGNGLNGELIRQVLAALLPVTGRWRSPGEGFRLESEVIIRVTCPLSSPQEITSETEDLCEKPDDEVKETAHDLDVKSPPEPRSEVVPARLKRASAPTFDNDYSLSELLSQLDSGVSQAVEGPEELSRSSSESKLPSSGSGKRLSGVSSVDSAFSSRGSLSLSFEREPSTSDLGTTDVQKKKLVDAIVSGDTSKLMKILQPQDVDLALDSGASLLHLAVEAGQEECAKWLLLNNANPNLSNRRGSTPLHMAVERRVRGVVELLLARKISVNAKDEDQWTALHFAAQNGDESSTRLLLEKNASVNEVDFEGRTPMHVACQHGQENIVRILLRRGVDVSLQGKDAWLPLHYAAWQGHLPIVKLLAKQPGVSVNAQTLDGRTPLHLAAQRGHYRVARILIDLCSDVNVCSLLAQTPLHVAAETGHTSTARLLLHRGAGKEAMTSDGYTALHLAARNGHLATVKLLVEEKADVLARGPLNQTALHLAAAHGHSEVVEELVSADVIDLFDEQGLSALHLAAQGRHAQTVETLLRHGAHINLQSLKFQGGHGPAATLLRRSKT
Experiment [14] deals with EGFR(T790M) (Homo sapiens, UniProt P00533, T790M). As to the kind of experiment: biochemical. Also noted: KINOMEscan active-site-directed competition binding panel, 468 kinases, percent of DMSO control at 1 uM. The following applies: KINOMEscan binding, percent of DMSO control; read-out: Ctrl%.
Experiment [15] has as its target CDKL1 (Homo sapiens, UniProt Q00532). As to the kind of experiment: biochemical. The following applies: KINOMEscan binding, percent of DMSO control; read-out: Ctrl%. Also on record: KINOMEscan active-site-directed competition binding panel, 468 kinases, percent of DMSO control at 1 uM.
Experiment [16] has as its target DYRK1A (Homo sapiens, UniProt Q13627). Put plainly: biochemical. Also noted: KINOMEscan active-site-directed competition binding panel, 468 kinases, percent of DMSO control at 1 uM. The following applies: KINOMEscan binding, percent of DMSO control; read-out: Ctrl%.
The target of experiment [17] is EGFR(L858R) (Homo sapiens, UniProt P00533, L858R). Put plainly: biochemical. Also on record: KINOMEscan active-site-directed competition binding panel, 468 kinases, percent of DMSO control at 1 uM. The following applies: KINOMEscan binding, percent of DMSO control; read-out: Ctrl%.
EGFR(L858R), sequence (P00533 whole entry L858R): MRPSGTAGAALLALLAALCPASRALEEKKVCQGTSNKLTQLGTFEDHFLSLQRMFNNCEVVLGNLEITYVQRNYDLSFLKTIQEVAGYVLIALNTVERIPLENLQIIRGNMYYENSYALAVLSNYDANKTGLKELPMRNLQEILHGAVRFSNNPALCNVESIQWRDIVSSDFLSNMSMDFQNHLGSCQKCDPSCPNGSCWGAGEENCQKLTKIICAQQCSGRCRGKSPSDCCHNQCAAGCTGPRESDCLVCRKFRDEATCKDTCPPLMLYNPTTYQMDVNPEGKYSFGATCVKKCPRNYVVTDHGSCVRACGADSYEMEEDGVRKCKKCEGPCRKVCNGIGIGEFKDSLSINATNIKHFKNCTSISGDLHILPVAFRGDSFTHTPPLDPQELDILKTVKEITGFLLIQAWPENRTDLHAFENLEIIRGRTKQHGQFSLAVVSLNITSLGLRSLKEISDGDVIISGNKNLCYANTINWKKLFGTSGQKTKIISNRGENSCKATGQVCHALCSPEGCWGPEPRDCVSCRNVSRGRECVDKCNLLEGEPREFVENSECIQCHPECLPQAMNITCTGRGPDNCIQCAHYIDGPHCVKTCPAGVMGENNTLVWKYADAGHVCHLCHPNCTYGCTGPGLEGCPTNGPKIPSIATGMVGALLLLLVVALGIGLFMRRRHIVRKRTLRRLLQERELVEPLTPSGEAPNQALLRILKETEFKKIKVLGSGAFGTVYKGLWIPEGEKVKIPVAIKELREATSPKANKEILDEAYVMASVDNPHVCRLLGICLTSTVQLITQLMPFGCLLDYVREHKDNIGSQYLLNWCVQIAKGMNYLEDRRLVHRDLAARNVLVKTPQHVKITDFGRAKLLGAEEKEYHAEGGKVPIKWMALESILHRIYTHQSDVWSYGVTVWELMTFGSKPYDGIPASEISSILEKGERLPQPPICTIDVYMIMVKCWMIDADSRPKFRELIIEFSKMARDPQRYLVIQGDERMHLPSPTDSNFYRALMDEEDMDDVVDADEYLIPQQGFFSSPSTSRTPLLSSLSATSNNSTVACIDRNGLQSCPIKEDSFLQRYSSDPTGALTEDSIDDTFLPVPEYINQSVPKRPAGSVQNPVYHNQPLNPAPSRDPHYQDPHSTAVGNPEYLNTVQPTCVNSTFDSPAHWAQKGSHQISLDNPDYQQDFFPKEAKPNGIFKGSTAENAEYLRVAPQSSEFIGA
The target in experiment [18] is RIOK1 (Homo sapiens, UniProt Q9BRS2). As to the kind of experiment: biochemical. The following applies: KINOMEscan binding, percent of DMSO control; read-out: Ctrl%. Also on record: KINOMEscan active-site-directed competition binding panel, 468 kinases, percent of DMSO control at 1 uM.
RIOK1, sequence (Q9BRS2 whole entry): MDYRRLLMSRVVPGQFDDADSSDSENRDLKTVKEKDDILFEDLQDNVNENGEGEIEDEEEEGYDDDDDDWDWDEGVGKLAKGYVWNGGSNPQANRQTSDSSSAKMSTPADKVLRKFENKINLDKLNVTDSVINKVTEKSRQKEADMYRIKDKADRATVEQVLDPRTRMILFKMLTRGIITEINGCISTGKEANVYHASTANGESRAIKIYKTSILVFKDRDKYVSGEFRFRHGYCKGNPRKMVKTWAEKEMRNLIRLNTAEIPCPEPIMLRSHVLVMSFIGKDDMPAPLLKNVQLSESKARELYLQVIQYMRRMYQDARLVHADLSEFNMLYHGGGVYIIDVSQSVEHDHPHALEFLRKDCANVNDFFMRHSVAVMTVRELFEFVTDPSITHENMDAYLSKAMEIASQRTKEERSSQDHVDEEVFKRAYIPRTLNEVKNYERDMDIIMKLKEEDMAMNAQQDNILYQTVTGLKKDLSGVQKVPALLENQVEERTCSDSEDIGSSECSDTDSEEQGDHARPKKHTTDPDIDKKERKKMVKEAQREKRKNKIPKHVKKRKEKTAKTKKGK
In experiment [19] the target is T3, YSK1 (Homo sapiens, UniProt O00506).
T3 construct: gene STK25
Put plainly: biochemical. Also noted: KINOMEscan active-site-directed competition binding panel, 468 kinases, percent of DMSO control at 1 uM. The following applies: KINOMEscan binding, percent of DMSO control; read-out: Ctrl%.

Experiment [20] has as its target T4, BRK (Homo sapiens, UniProt Q13882).
T4 construct: gene PTK6
Put plainly: biochemical. Also noted: KINOMEscan active-site-directed competition binding panel, 468 kinases, percent of DMSO control at 1 uM. The following applies: KINOMEscan binding, percent of DMSO control; read-out: Ctrl%.

Experiment [21] concerns the target CAMK1G (Homo sapiens, UniProt Q96NX5). Put plainly: biochemical. Also noted: KINOMEscan active-site-directed competition binding panel, 468 kinases, percent of DMSO control at 1 uM. The following applies: KINOMEscan binding, percent of DMSO control; read-out: Ctrl%.
The target in experiment [22] is T5, PIK4CB (Homo sapiens, UniProt Q9UBF8).
T5 construct: gene PI4KB
As to the kind of experiment: biochemical. Also on record: KINOMEscan active-site-directed competition binding panel, 468 kinases, percent of DMSO control at 1 uM. The following applies: KINOMEscan binding, percent of DMSO control; read-out: Ctrl%.

The target of experiment [23] is T6, OSR1 (Homo sapiens, UniProt O95747).
T6 construct: gene OXSR1
As to the kind of experiment: biochemical. Also noted: KINOMEscan active-site-directed competition binding panel, 468 kinases, percent of DMSO control at 1 uM. The following applies: KINOMEscan binding, percent of DMSO control; read-out: Ctrl%.

In experiment [24] the target is FLT3(ITD,D835V) (Homo sapiens, UniProt P36888, D835V/ITD). Put plainly: biochemical. Also on record: KINOMEscan active-site-directed competition binding panel, 468 kinases, percent of DMSO control at 1 uM. The following applies: KINOMEscan binding, percent of DMSO control; read-out: Ctrl%.

CDKL1, sequence (Q00532 whole entry): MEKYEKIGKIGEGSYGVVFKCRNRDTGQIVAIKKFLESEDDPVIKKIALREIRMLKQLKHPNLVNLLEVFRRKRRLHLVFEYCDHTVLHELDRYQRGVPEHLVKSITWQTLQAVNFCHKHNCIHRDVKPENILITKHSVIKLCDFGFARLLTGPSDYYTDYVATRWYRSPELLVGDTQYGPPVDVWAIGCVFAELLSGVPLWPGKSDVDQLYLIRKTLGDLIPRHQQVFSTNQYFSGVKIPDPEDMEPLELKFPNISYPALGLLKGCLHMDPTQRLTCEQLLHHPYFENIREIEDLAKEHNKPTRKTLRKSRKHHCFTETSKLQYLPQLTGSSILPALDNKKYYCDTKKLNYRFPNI

On to `Cc1ccc(NC(=O)c2cccc(C(F)(F)F)c2)cc1Nc1cc(-c2cccnc2)nc2[nH]ccc12` [HZX-02-059], for which the remaining binding at 1 µM stood at 0.75% in experiment [1]; 94% in experiment [2]; 100% in experiment [3]; 100% in experiment [4]; 100% in experiment [5]; 93% in [6]. For the same compound, the remaining binding at 1 µM in [7] worked out at 77%; in experiment [8], 27%; in experiment [9] it was 92%; in experiment [10], 100%; in [11], 100%; in experiment [12], 78%. Further, the remaining binding at 1 µM came out at 75% in experiment [13]; 94% in experiment [14]; 89% in experiment [15]; 85% in experiment [16]; 87% in experiment [17]; 98% in experiment [18]. Moreover, the remaining binding at 1 µM in experiment [19] worked out at 94%; in experiment [20] it was 83%; in experiment [21] it was 100%; in experiment [22], 78%; in experiment [23], 97%; in [24], 100%.
